# Measured values from article PMC7481482, “Development of Anthraquinone Derivatives as Ectonucleoside Triphosphate Diphosphohydrolase (NTPDase) Inhibitors With Selectivity for NTPDase2 and NTPDase3” (Frontiers in Pharmacology, 2020).
# Columns and labels:
# Format in all cases: biochemical
# human NTPDase3 = target: T1, human NTPDase3 (Homo sapiens, UniProt O75355); assay: Malachite green assay, human NTPDase3; conditions: for inhibition at 2 µM: 2 μM compound, read-out: % inhibition at 2 μM concentration, NTPDase3; for inhibition at 2 µM / IC50: 100 µM ATP, COS-7 membrane preparation; for IC50: read-out: IC50 ± SEM, NTPDase3
# T1 construct: expressed in transfected cells; host or cells: COS-7 cells (membrane preparation)
# T1 sequence (O75355 1-529): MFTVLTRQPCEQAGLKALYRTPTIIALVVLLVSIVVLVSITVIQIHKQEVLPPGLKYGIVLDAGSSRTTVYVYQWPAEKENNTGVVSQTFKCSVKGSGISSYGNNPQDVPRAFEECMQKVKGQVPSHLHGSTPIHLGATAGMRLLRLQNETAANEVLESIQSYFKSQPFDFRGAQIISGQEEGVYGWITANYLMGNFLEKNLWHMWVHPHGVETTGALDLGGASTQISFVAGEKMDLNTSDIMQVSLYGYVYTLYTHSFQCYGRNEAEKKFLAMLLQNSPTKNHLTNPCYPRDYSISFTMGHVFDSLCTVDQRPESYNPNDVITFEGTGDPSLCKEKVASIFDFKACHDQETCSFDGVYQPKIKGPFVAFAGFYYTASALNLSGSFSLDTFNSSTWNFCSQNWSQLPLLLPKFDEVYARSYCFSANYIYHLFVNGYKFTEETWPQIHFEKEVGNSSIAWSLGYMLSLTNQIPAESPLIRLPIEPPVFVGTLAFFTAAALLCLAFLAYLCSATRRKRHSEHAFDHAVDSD
# Method: (§1) Membrane preparations expressing human NTPDase1, -2, -3, or -8, respectively, were obtained as previously described ([Sévigny et al., 1997]; [Cogan et al., 1999]; [Kukulski et al., 2005]; [Lecka et al., 2013]; [Lee et al., 2018]). Enzyme inhibition assays were performed using the malachite green assay in analogy to published procedures with some modifications ([Dou et al., 2018]). The reaction buffer contained 10 mM HEPES, 2 mM CaCl2, and 1 mM MgCl2 (pH 7.4) in a final volume of 50 μL in transparent 96-well half-area plates. The compounds were initially tested at a final concentration of 2 µM using a COS-7-cell membrane preparation expressing the appropriate NTPDase isoenzyme (protein amount: 143 ng for NTPDase1, 175 ng for NTPDase2, 152 ng for NTPDase3, and 175 ng for NTPDase8). Preincubated of the enzyme preparations was perfomred at 37°C in the presence or absence of test compounds with gentle shaking (Eppendorf Thermomixer comfort at 500 rpm) for 5 min. […] ([Kukulski et al., 2005]). After 15 min of incubation at 37°C with gentle shaking, the reaction was stopped by the addition of the detection reagents (20 µL malachite green solution, 0.6 mM, and 30 µL of ammonium molybdate solution, 20 mM, in 1.5 M sulfuric acid). The released inorganic phosphate was quantified after 20 min of gentle shaking at 25°C by measuring the absorption of the malachite green-phosphomolybdate complex at 600 nm using a BMG PheraStar FS plate reader (BMG Labtech GmbH, Ortenberg, Germany). The corrected absorption was calculated by subtracting the absorption of the negative control samples, which were incubated with previously denatured enzyme (90°C, 15 min). Full concentration-inhibition curves were determined with inhibitor concentrations ranging from 0.03 to 30 µM in the presence of 2% DMSO. Inhibition-type experiments were performed with 25, 50, 100, 150 and 200 µM ATP as substrate for NTPDase2 in the presence of inhibitor 20 (0, 0.25, 0.5, and 1 µM) and 25, 50, 100 and 150 µM ATP substrate for NTPDase3 and compound 42 (0.25, 0.5, and 1 µM). For all of the presented data, at least three independent experiments were performed, and IC50 values were calculated by GraphPad Prism 8 software.
# (§2) Inhibition of human NTPDases was performed using the malachite green assay, which was established on a robotic system (Z’ factors > 0.70) ([Baykov et al., 1988]; [Fiene et al., 2015]). The malachite green assay enables the detection of the phosphate produced by the enzymatic hydrolysis of nucleotides. A fixed substrate concentration of 50 µM ATP for NTPDase1 and 100 µM for NTPDase2, -3, and -8 was employed. Test compounds were initially screened at a concentration of 2 μM. […] A total of 48 synthesized anthraquinone derivatives including 14 new compounds not previously described in the literature were evaluated for their inhibitory activity at human NTPDase1, -2, -3, and -8 (for results see Table 1).
# human NTPDase1 = target: T2, human NTPDase1 (Homo sapiens, UniProt P49961); assay: Malachite green assay, human NTPDase1; conditions: 2 μM compound; 50 µM ATP; COS-7 membrane preparation; read-out: % inhibition at 2 μM concentration, NTPDase1
# T2 construct: expressed in transfected cells; host or cells: COS-7 cells (membrane preparation)
# T2 sequence (P49961 1-510): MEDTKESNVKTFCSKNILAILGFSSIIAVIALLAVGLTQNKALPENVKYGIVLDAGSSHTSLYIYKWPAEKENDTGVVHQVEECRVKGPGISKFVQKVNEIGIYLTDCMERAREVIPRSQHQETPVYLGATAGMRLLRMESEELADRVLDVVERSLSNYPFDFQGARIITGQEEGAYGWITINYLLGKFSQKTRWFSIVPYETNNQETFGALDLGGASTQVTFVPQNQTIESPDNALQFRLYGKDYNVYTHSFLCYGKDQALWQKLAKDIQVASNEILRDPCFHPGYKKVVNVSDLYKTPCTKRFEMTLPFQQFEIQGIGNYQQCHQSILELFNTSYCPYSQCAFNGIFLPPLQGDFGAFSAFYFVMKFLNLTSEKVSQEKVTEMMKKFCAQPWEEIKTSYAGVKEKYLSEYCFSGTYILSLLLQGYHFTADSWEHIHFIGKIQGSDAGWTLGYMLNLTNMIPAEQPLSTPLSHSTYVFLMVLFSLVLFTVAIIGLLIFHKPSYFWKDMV
# Method: as §1, §2
# human NTPDase2 = target: T3, human NTPDase2 (Homo sapiens, UniProt Q9Y5L3); assay: Malachite green assay, human NTPDase2; conditions: 100 µM ATP, COS-7 membrane preparation; for IC50: read-out: IC50 ± SEM, NTPDase2; for inhibition at 2 µM: 2 μM compound, read-out: % inhibition at 2 μM concentration, NTPDase2
# T3 construct: expressed in transfected cells; host or cells: COS-7 cells (membrane preparation)
# T3 sequence (Q9Y5L3 1-495): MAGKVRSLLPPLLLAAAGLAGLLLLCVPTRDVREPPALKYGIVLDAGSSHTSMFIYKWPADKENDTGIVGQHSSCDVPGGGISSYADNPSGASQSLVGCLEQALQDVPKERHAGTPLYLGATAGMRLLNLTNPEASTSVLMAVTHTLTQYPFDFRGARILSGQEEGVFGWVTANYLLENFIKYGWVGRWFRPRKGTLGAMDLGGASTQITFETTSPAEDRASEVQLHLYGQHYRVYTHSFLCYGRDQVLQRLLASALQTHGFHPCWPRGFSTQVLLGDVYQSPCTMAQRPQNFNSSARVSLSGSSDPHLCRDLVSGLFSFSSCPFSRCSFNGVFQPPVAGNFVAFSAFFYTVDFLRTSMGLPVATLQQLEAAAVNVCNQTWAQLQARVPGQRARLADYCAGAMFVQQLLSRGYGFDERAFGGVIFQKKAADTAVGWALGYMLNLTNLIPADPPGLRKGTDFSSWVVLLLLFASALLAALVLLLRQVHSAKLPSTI
# Method: as §1, §2
# human NTPDase8 = target: T4, human NTPDase8 (Homo sapiens, UniProt Q5MY95); assay: Malachite green assay, human NTPDase8; conditions: 2 μM compound; 100 µM ATP; COS-7 membrane preparation; read-out: % inhibition at 2 μM concentration, NTPDase8
# T4 construct: expressed in transfected cells; host or cells: COS-7 cells (membrane preparation)
# T4 sequence (Q5MY95 1-495): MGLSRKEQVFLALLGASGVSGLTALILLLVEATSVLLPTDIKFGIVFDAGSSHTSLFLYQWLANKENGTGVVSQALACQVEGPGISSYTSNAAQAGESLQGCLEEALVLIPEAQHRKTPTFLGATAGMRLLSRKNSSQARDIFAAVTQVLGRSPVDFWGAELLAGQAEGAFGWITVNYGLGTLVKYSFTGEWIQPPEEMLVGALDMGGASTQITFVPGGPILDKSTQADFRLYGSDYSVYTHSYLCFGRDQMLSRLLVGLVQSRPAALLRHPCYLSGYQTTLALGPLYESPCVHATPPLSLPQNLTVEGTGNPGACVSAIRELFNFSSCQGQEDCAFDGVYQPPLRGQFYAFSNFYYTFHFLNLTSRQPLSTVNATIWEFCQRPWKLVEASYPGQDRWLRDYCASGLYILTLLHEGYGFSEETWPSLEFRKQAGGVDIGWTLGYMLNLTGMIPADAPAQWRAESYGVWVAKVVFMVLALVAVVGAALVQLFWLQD
# Method: as §1, §2
inhibition at 2 µM (human NTPDase3),inhibition at 2 µM (human NTPDase1),IC50 (human NTPDase2),inhibition at 2 µM (human NTPDase8),inhibition at 2 µM (human NTPDase2),SMILES,IC50 (human NTPDase3),"inhibition type, NTPDase3 (human NTPDase3; Hanes-Woolf plot, 25-150 µM ATP, inhibitor 0.25, 0.5, 1 µM)"
9%,2%,5450 ± 700 nM,-1%,–,Cc1cc(Cl)ccc1Nc1cc(S(=O)(=O)O)c(N)c2c1C(=O)c1ccccc1C2=O [Compound 38],–,–
–,36%,3590 ± 850 nM,28%,–,Nc1c(S(=O)(=O)O)cc(Nc2cccc(Cc3ccccc3)c2)c2c1C(=O)c1ccccc1C2=O [Compound 39],13100 ± 1650 nM,–
18%,12%,1110 ± 60 nM,9%,–,Nc1c(S(=O)(=O)O)cc(Nc2cccc(Oc3ccccc3)c2)c2c1C(=O)c1ccccc1C2=O [Compound 40],–,–
3%,7%,1320 ± 50 nM,3%,–,Nc1c(S(=O)(=O)O)cc(Nc2ccc(Cc3ccccc3)cc2)c2c1C(=O)c1ccccc1C2=O [Compound 43],–,–
7%,15%,934 ± 136 nM,6%,–,Nc1c(S(=O)(=O)O)cc(Nc2ccc(Sc3ccccc3)cc2)c2c1C(=O)c1ccccc1C2=O [Compound 44],–,–
21%,33%,1730 ± 290 nM,10%,–,Nc1c(S(=O)(=O)O)cc(Nc2ccc(Oc3ccc(Br)cc3)cc2)c2c1C(=O)c1ccccc1C2=O [Compound 46],–,–
20%,29%,551 ± 195 nM,14%,–,"Nc1c(S(=O)(=O)O)cc(Nc2ccc(Sc3ccccc3)c(Cl)c2)c2c1C(=O)c1ccccc1C2=O [Compound 48, Sodium 1-amino-4-(3-chloro-4-phenylsulfanyl)-phenylamino-9,10-dioxo-9,10-dihydroanthracene-2-sulfonate]",–,–
36%,46%,1280 ± 340 nM,27%,–,Cc1ccc(Sc2ccc(Nc3cc(S(=O)(=O)O)c(N)c4c3C(=O)c3ccccc3C4=O)cc2)c(C)c1 [Compound 49],–,–
34%,38%,1130 ± 270 nM,17%,–,Cc1ccc(C)c(Sc2ccc(Nc3cc(S(=O)(=O)O)c(N)c4c3C(=O)c3ccccc3C4=O)cc2)c1 [Compound 50],–,–
44%,51%,832 ± 53 nM,27%,–,Cc1ccc(Sc2ccc(Nc3cc(S(=O)(=O)O)c(N)c4c3C(=O)c3ccccc3C4=O)cc2)cc1C [Compound 51],–,–
1%,-2%,–,3%,-5%,Nc1c(Br)cc(Nc2cccc(C(=O)O)c2)c2c1C(=O)c1ccccc1C2=O [Compound 52],–,–
-2%,-4%,–,-2%,7%,Cc1cc(Nc2cccc(F)c2)c2c(c1N)C(=O)c1ccccc1C2=O [Compound 54],–,–
0%,-6%,–,-2%,3%,COc1cccc(Nc2cc(C)c(N)c3c2C(=O)c2ccccc2C3=O)c1 [Compound 55],–,–
-1%,-3%,–,-3%,6%,CCc1cccc(Nc2cc(C)c(N)c3c2C(=O)c2ccccc2C3=O)c1 [Compound 56],–,–
32%,1%,–,5%,5%,O=C(O)c1cc(Nc2cc(S(=O)(=O)O)cc3c2C(=O)c2ccccc2C3=O)ccc1O [Compound 58],–,–

SMILES,inhibition at 2 µM (human NTPDase3),inhibition at 2 µM (human NTPDase1),IC50 (human NTPDase2),inhibition at 2 µM (human NTPDase8),inhibition at 2 µM (human NTPDase2),IC50 (human NTPDase3),"inhibition type, NTPDase3 (human NTPDase3; Hanes-Woolf plot, 25-150 µM ATP, inhibitor 0.25, 0.5, 1 µM)"
"Nc1c(S(=O)(=O)O)cc(Nc2ccc(S(=O)(=O)O)c(Nc3nc(Cl)nc(Cl)n3)c2)c2c1C(=O)c1ccccc1C2=O [Compound 42, 1-amino-4-[3-(4,6-dichlorotriazin-2-ylamino)-4-sulfophenylamino]-9,10-dioxo-9,10-dihydroanthracene-2-sulfonate]",–,-2%,–,-7%,10%,390 ± 41 nM,mixed-type
